Measurements taken from patent US20230087118A1, “IMIDAZO[1,2-a][sequence] DERIVATIVES AND THEIR USE IN THE TREATMENT OF DISEASE” (priority 2019, published 2023).
Structures can show the parent of a compound that is named as a salt. Where two headings read alike, the source gives them in different places.

Target: T1, IRAK4 (Homo sapiens, UniProt Q9NWZ3)
T1 sequence (Q9NWZ3 1-460): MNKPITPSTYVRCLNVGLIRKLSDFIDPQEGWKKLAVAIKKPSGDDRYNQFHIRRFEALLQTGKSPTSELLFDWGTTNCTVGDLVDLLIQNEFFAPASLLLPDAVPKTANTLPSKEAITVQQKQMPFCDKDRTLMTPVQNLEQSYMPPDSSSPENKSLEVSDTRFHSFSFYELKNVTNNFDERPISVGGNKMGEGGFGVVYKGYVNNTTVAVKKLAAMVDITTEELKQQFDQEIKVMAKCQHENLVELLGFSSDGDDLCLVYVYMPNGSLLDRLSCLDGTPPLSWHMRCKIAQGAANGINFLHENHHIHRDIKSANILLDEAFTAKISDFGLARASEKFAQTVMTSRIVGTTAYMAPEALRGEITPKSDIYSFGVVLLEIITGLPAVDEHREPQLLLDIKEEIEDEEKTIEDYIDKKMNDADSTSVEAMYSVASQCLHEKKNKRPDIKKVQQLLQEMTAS
Assay: biochemical

[1] = IRAK4 Biochemical Assay (1 mM ATP, 2 h) IC50 (μM), 1 mM ATP, 2 h, 100 pM IRAK4

IC50 [µM] | IC50 [1] [µM] | SMILES
0.0032 | – | CC(C)Oc1nc2nc(C34COC(C)(C3)C4)cn2cc1C(=O)Nc1cccnc1OC(F)F [Example 389, N-(2-(difluoromethoxy)pyridin-3-yl)-7-isopropoxy-2-(1-methyl-2-oxabicyclo[2.1.1]hexan-4-yl)imidazo[1,2-a]pyrimidine-6-carboxamide]
– | 0.009 | CCOc1cc2nc(C3(OC)CC3)cn2cc1C(=O)Nc1cccc(C(F)F)n1 [Example 390, N-(6-(difluoromethyl)pyridin-2-yl)-7-ethoxy-2-(1-methoxy-cyclopropyl)imidazo[1,2-a]pyridine-6-carboxamide hydrochloride]
– | 0.0034 | CCOc1cc2nc(C3CCOCC3)cn2cc1C(=O)Nc1cccc(C2CCOC2)n1 (stereo not shown) [Example 391, 7-Ethoxy-2-(tetrahydro-2H-pyran-4-yl)-N-(6-(tetrahydrofuran-3-yl)pyridin-2-yl)imidazo[1,2-a]pyridine-6-carboxamide hydrochloride]
– | 0.0018 | CCOc1cc2nc(C3CCOCC3)cn2cc1C(=O)Nc1cccc(C(F)CF)n1 (stereo not shown) [Example 392, N-(6-(1,2-difluoroethyl)pyridin-2-yl)-7-ethoxy-2-(tetrahydro-2H-pyran-4-yl)imidazo[1,2-a]pyridine-6-carboxamide hydrochloride]
0.0001 | – | CC(C)Oc1c(C(=O)Nc2cccc(-c3cnn(C)c3)n2)cn2cc(C34COC(C)(C3)C4)nc2c1F [Example 393, 8-Fluoro-7-isopropoxy-N-(6-(1-methyl-1H-pyrazol-4-yl)pyridin-2-yl)-2-(1-methyl-2-oxabicyclo[2.1.1]hexan-4-yl)imidazo[1,2-a]pyridine-6-carboxamide]
0.0057 | – | CC(C)Oc1cc(C(=O)Nc2cccc(C(F)F)n2)cn2cc(C3CCCOC3)nc12 (stereo not shown) [Example 394, N-(6-(difluoromethyl)pyridin-2-yl)-8-isopropoxy-2-(tetrahydro-2H-pyran-3-yl)imidazo[1,2-a]pyridine-6-carboxamide]
0.0057 | – | CC(C)Oc1nc2nc(C3C4COCC43)cn2cc1C(=O)Nc1ccn(C(F)F)n1 (stereo not shown) [Example 395, 2-(3-Oxabicyclo[3.1.0]hexan-6-yl)-N-(1-(difluoromethyl)-1H-pyrazol-3-yl)-7-isopropoxyimidazo[1,2-a]pyrimidine-6-carboxamide]
– | 0.0076 | CC(C)Oc1nc2nc(C3C4COCC43)cn2cc1C(=O)Nc1ccn(C)n1 (stereo not shown) [Example 396, 2-(3-Oxabicyclo[3.1.0]hexan-6-yl)-7-isopropoxy-N-(1-methyl-1H-pyrazol-3-yl)imidazo[1,2-a]pyrimidine-6-carboxamide formate]
0.0134 | – | CC(C)Oc1nc2nc(C34COC(C)(C3)C4)cn2cc1C(=O)Nc1nc(C(F)(F)F)cs1 [Example 397, 7-Isopropoxy-2-(1-methyl-2-oxabicyclo[2.1.1]hexan-4-yl)-N-(4-(trifluoromethyl)thiazol-2-yl)imidazo[1,2-a]pyrimidine-6-carboxamide]
0.003 | – | CC(C)Oc1nc2nc(C34COC(C)(C3)C4)cn2cc1C(=O)Nc1cccc(F)c1Cl [Example 399, N-(2-chloro-3-fluorophenyl)-7-isopropoxy-2-(1-methyl-2-oxabicyclo[2.1.1]hexan-4-yl)imidazo[1,2-a]pyrimidine-6-carboxamide]

The next lines start with the compound.

SMILES | IC50 [µM] | IC50 [1] [µM]
CC(C)Oc1nc2nc(C34COC(C)(C3)C4)cn2cc1C(=O)Nc1ccn2nccc2n1 [Example 372, 7-Isopropoxy-2-(1-methyl-2-oxabicyclo[2.1.1]hexan-4-yl)-N-(pyrazolo[1,5-a]pyrimidin-5-yl)imidazo[1,2-a]pyrimidine-6-carboxamide] | 0.0576 | –
CC(C)Oc1nc2nc(C34COC(C)(C3)C4)cn2cc1C(=O)Nc1cnc2cccnn12 [Example 373, N-(imidazo[1,2-b]pyridazin-3-yl)-7-isopropoxy-2-(1-methyl-2-oxabicyclo[2.1.1]hexan-4-yl)imidazo[1,2-a]pyrimidine-6-carboxamide] | 0.0006 | –
Cc1ccn2ncc(NC(=O)c3cn4cc(C56COC(C)(C5)C6)nc4nc3OC(C)C)c2n1 [Example 374, 7-Isopropoxy-2-(1-methyl-2-oxabicyclo[2.1.1]hexan-4-yl)-N-(5-methyl-pyrazolo[1,5-a]pyrimidin-3-yl)imidazo[1,2-a]pyrimidine-6-carboxamide] | 0.0014 | –
CC(C)Oc1nc2nc(C34COC(C)(C3)C4)cn2cc1C(=O)Nc1cnn2cc(C3CC3)cnc12 [Example 375, N-(6-cyclopropylpyrazolo[1,5-a]pyrimidin-3-yl)-7-isopropoxy-2-(1-methyl-2-oxabicyclo[2.1.1]hexan-4-yl)imidazo[1,2-a]pyrimidine-6-carboxamide] | 0.0067 | –
CC(C)Oc1nc2nc(C34COC(C)(C3)C4)cn2cc1C(=O)Nc1snc2cccnc12 [Example 376, 7-Isopropoxy-N-(isothiazolo[4,3-b]pyridin-3-yl)-2-(1-methyl-2-oxabicyclo[2.1.1]hexan-4-yl)imidazo[1,2-a]pyrimidine-6-carboxamide] | 0.0018 | –
CC(C)Oc1nc2nc(C34COC(C)(C3)C4)cn2cc1C(=O)Nc1cccc2c1OCC2 [Example 377, N-(2,3-dihydrobenzofuran-7-yl)-7-isopropoxy-2-(1-methyl-2-oxabicyclo[2.1.1]hexan-4-yl)imidazo[1,2-a]pyrimidine-6-carboxamide trifluoroacetate] | – | 0.0003
CC(C)Oc1nc2nc(C34COC(C)(C3)C4)cn2cc1C(=O)Nc1cccc2scnc12 [Example 378, N-(benzo[d]thiazol-4-yl)-7-isopropoxy-2-(1-methyl-2-oxabicyclo[2.1.1]hexan-4-yl)imidazo[1,2-a]pyrimidine-6-carboxamide] | 0.0002 | –
CC(C)Oc1nc2nc(C34COC(C)(C3)C4)cn2cc1C(=O)Nc1cccc2c1ncn2C [Example 379, 7-Isopropoxy-N-(1-methyl-1H-benzo[d]imidazol-4-yl)-2-(1-methyl-2-oxabicyclo[2.1.1]hexan-4-yl)imidazo[1,2-a]pyrimidine-6-carboxamide trifluoroacetate] | – | 0.001
CC(C)Oc1nc2nc(C34COC(C)(C3)C4)cn2cc1C(=O)Nc1csc2nccnc12 [Example 380, 7-Isopropoxy-2-(1-methyl-2-oxabicyclo[2.1.1]hexan-4-yl)-N-(thieno[2,3-b]pyrazin-7-yl)imidazo[1,2-a]pyrimidine-6-carboxamide trifluoroacetate] | – | 0.0002
CC(C)Oc1nc2nc(C34COC(CF)(C3)C4)cn2cc1C(=O)Nc1cccn(C(F)F)c1=O [Example 381, N-(1-(difluoromethyl)-2-oxo-1,2-dihydropyridin-3-yl)-2-(1-(fluoromethyl)-2-oxabicyclo[2.1.1]hexan-4-yl)-7-isopropoxyimidazo[1,2-a]pyrimidine-6-carboxamide] | 0.0004 | –
CC(C)Oc1nc2nc(C34CCC(C)(CC3)OC4)cn2cc1C(=O)Nc1cc(F)n(C)n1 [Example 382, N-(5-fluoro-1-methyl-1H-pyrazol-3-yl)-7-isopropoxy-2-(1-methyl-2-oxabicyclo[2.2.2]octan-4-yl)imidazo[1,2-a]pyrimidine-6-carboxamide] | 0.0046 | –
CC(C)Oc1nc2nc(C34CCC(C)(CC3)OC4)cn2cc1C(=O)Nc1cccc(C(F)F)n1 [Example 383, N-(6-(difluoromethyl)pyridin-2-yl)-7-isopropoxy-2-(1-methyl-2-oxabicyclo[2.2.2]octan-4-yl)imidazo[1,2-a]pyrimidine-6-carboxamide] | – | 0.0001
CC(C)Oc1nc2nc(C34CCC(C)(CC3)OC4)cn2cc1C(=O)Nc1cccn(C(F)F)c1=O [Example 384, N-(1-(difluoromethyl)-2-oxo-1,2-dihydropyridin-3-yl)-7-isopropoxy-2-(1-methyl-2-oxabicyclo[2.2.2]octan-4-yl)imidazo[1,2-a]pyrimidine-6-carboxamide] | 0.0002 | –
CC(C)Oc1nc2nc(C34COC(C)(C3)C4)cn2cc1C(=O)Nc1cccc2ccnn12 [Example 385, 7-Isopropoxy-2-(1-methyl-2-oxabicyclo[2.1.1]hexan-4-yl)-N-(pyrazolo[1,5-a]pyridin-7-yl)imidazo[1,2-a]pyrimidine-6-carboxamide] | 0.0004 | –
CC(C)Oc1nc2nc(C34COC(C)(C3)C4)cn2cc1C(=O)Nc1cccc(C(F)F)c1 [Example 386, N-(3-(difluoromethyl)phenyl)-7-isopropoxy-2-(1-methyl-2-oxabicyclo[2.1.1]hexan-4-yl)imidazo[1,2-a]pyrimidine-6-carboxamide] | 0.0012 | –
CC(C)Oc1nc2nc(C34COC(C)(C3)C4)cn2cc1C(=O)Nc1cccc(C2CC2)n1 [Example 387, N-(6-cyclopropylpyridin-2-yl)-7-isopropoxy-2-(1-methyl-2-oxabicyclo[2.1.1]hexan-4-yl)imidazo[1,2-a]pyrimidine-6-carboxamide] | 0.0009 | –
CC(C)Oc1nc2nc(C34COC(C)(C3)C4)cn2cc1C(=O)Nc1cccn(C(F)F)c1=O [Example 388, N-(1-(difluoromethyl)-2-oxo-1,2-dihydropyridin-3-yl)-7-isopropoxy-2-(1-methyl-2-oxabicyclo[2.1.1]hexan-4-yl)imidazo[1,2-a]pyrimidine-6-carboxamide] | 0.0002 | –
CC(C)Oc1nc2nc(C34COC(C)(C3)C4)cn2cc1C(=O)Nc1cnn2cc(F)cnc12 [Example 398, N-(6-fluoropyrazolo[1,5-a]pyrimidin-3-yl)-7-isopropoxy-2-(1-methyl-2-oxabicyclo[2.1.1]hexan-4-yl)imidazo[1,2-a]pyrimidine-6-carboxamide] | – | 0.0002
